Source: the NIST ThermoML archive (doi:10.1016/j.jct.2016.03.026)

Experiment: xn = mol fraction of the nth substance listed
Details: 273.15 K, Fluid (supercritical or subcritical phases), x1 = 0.97; for mass density: Vibrating tube method; for speed of sound: Frequency=5 MHz, Pulse-echo method

O=C=O [carbon dioxide] + CO
Details | mass density [kg/m3] | speed of sound [m/s]
5000 kPa | 943.89 | –
5025 kPa | 944.05 | –
5050 kPa | 944.22 | –
5075 kPa | 944.38 | –
5100 kPa | 944.55 | –
5125 kPa | 944.71 | –
5150 kPa | 944.88 | –
5175 kPa | 945.05 | –
5200 kPa | 945.28 | –
5225 kPa | 945.45 | –
5250 kPa | 945.61 | –
5275 kPa | 945.83 | –
5300 kPa | 945.95 | –
5325 kPa | 946.18 | –
5350 kPa | 946.35 | –
5375 kPa | 946.51 | –
5400 kPa | 946.68 | –
5425 kPa | 946.88 | –
5450 kPa | 947.02 | –
5475 kPa | 947.19 | –
5500 kPa | 947.38 | –
5525 kPa | 947.55 | –
5550 kPa | 947.7 | –
5575 kPa | 947.84 | –
5600 kPa | 948 | –
5625 kPa | 948.22 | –
5650 kPa | 948.35 | –
5675 kPa | 948.48 | –
5700 kPa | 948.64 | –
5725 kPa | 948.81 | –
5750 kPa | 948.97 | –
5775 kPa | 949.13 | –
5800 kPa | 949.3 | –
5825 kPa | 949.41 | –
5850 kPa | 949.62 | –
5875 kPa | 949.74 | –
5900 kPa | 949.87 | –
5925 kPa | 950.03 | –
5950 kPa | 950.2 | –
5975 kPa | 950.35 | –
6000 kPa | 950.47 | –
6020 kPa | – | 581.6
6025 kPa | 950.61 | –
6040 kPa | – | 581
6050 kPa | 950.77 | –
6075 kPa | 950.93 | –
6100 kPa | 951.1 | –
6125 kPa | 951.26 | –
6150 kPa | 951.39 | –
6175 kPa | 951.59 | –
6200 kPa | 951.67 | –
6225 kPa | 951.86 | –
6250 kPa | 952.08 | –
6275 kPa | 952.24 | –
6300 kPa | 952.33 | –
6325 kPa | 952.49 | –
6350 kPa | 952.65 | –
6375 kPa | 952.82 | –
6400 kPa | 952.98 | –
6425 kPa | 953.14 | –
6450 kPa | 953.31 | –
6475 kPa | 953.47 | –
6500 kPa | 953.64 | –
6525 kPa | 953.73 | –
6550 kPa | 953.88 | –
6575 kPa | 954.04 | –
6600 kPa | 954.21 | –
6625 kPa | 954.37 | –
6650 kPa | 954.53 | –
6675 kPa | 954.7 | –
6700 kPa | 954.86 | –
6725 kPa | 955.03 | –
6750 kPa | 955.19 | –
6775 kPa | 955.35 | –
6800 kPa | 955.52 | –
6825 kPa | 955.67 | –
6850 kPa | 955.82 | –
6875 kPa | 955.96 | –
6900 kPa | 956.09 | –
6925 kPa | 956.25 | –
6950 kPa | 956.42 | –
6975 kPa | 956.58 | –
7000 kPa | 956.75 | –
7025 kPa | 956.91 | –
7050 kPa | 956.99 | –
7075 kPa | 957.15 | –
7100 kPa | 957.34 | –
7125 kPa | 957.48 | –
7150 kPa | 957.65 | –
7175 kPa | 957.81 | –
7200 kPa | 957.97 | –
7225 kPa | 958.14 | –
7250 kPa | 958.27 | –
7275 kPa | 958.38 | –
7300 kPa | 958.55 | –
7325 kPa | 958.71 | –
7350 kPa | 958.87 | –
7375 kPa | 959 | –
7400 kPa | 959.12 | –
7425 kPa | 959.28 | –
7450 kPa | 959.45 | –
7475 kPa | 959.61 | –
7500 kPa | 959.77 | –
7525 kPa | 959.94 | –
7550 kPa | 960.02 | –
7575 kPa | 960.18 | –
7600 kPa | 960.35 | –
7625 kPa | 960.51 | –
7650 kPa | 960.68 | –
7675 kPa | 960.84 | –
7700 kPa | 960.92 | –
7725 kPa | 961.08 | –
7750 kPa | 961.25 | –
7775 kPa | 961.41 | –
7800 kPa | 961.54 | –
7825 kPa | 961.66 | –
7850 kPa | 961.82 | –
7875 kPa | 961.98 | –
7900 kPa | 962.15 | –
7925 kPa | 962.23 | –
7950 kPa | 962.39 | –
7975 kPa | 962.56 | –
